Laboratory results taken from patent US12466827B2, “1,3,4-oxadiazole derivative compounds as histone deacetylase 6 inhibitor, and the pharmaceutical composition comprising the same” (CHONG KUN DANG PHARMACEUTICAL CORP., priority 2020, dated 2025).

Columns and labels:
human recombinant HDAC1 = target: T1, human recombinant HDAC1 (Homo sapiens, UniProt Q13547); test: In vitro HDAC enzyme activity inhibition assay (HDAC1); type: biochemical; settings: Fluor de Lys-SIRT1 substrate 10 μM, 30° C., 60 minutes, fluorescence
T1 construct: purchased Enzo Life Sciences, Inc. BML-SE456
T1 sequence (Q13547 whole entry): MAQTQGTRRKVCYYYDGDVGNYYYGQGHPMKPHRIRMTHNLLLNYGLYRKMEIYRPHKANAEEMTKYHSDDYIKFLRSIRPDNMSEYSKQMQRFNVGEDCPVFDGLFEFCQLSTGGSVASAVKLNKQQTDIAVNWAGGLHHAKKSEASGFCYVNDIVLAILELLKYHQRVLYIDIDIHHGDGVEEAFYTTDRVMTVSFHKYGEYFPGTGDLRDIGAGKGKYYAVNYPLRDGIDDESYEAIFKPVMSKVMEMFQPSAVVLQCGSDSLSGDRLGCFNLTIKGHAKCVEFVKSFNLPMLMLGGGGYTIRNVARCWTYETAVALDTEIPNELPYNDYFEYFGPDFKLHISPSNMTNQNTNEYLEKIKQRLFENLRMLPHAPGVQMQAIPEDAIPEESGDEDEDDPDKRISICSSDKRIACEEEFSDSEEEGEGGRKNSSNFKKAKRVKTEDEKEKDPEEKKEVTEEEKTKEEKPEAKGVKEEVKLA
Method: (§1) In order to confirm the selectivity of the compounds represented by Chemical Formula I of the present invention to HDAC6 through HDAC1 and HDAC6 enzyme activity inhibition experiments, a comparison experiment was performed using the material that has already been developed as a control group.
(§2) HDAC enzyme activity was measured using the HDAC Fluorimetric Drug Discovery Kit (Enzo Life Sciences, Inc., BML-AK511, 516). For the HDAC1 enzyme activity test, human recombinant HDAC1 (BML-SE456) was used as an enzyme source and Fluor de Lys-SIRT1 (BNL-KI177) was used as a substrate. After dispensing 5-fold diluted compounds into a 96-well plate, 0.3 μg of enzyme and 10 μM substrate were added to each well of the plate and allowed to react at 30° C. for 60 minutes. Next, Fluor de Lys Developer II (BML-KI176) was added and reacted for 30 minutes to complete the reaction, and then the fluorescence values (Ex 360, Em 460) were measured using a multi-plate reader (Flexstation 3, Molecular Device). The HDAC6 enzymes were tested using human recombinant HDAC6 (382180) from Calbiochem Inc., according to the same protocol as the HDAC1 enzyme activity test method. With respect to the final result values, respective IC50 values were calculated using GraphPad Prism 4.0 program, and results thereof were summarized in Table 4 below.

human recombinant HDAC6 = target: T2, human recombinant HDAC6 (Homo sapiens, UniProt Q9UBN7); test: In vitro HDAC enzyme activity inhibition assay (HDAC6); type: biochemical; settings: for HDAC6 selectivity (fold): HDAC6 over HDAC1; for IC50: same protocol as the HDAC1 test, human recombinant HDAC6 (Calbiochem)
T2 construct: purchased Calbiochem Inc. 382180
T2 sequence (Q9UBN7 1-1215): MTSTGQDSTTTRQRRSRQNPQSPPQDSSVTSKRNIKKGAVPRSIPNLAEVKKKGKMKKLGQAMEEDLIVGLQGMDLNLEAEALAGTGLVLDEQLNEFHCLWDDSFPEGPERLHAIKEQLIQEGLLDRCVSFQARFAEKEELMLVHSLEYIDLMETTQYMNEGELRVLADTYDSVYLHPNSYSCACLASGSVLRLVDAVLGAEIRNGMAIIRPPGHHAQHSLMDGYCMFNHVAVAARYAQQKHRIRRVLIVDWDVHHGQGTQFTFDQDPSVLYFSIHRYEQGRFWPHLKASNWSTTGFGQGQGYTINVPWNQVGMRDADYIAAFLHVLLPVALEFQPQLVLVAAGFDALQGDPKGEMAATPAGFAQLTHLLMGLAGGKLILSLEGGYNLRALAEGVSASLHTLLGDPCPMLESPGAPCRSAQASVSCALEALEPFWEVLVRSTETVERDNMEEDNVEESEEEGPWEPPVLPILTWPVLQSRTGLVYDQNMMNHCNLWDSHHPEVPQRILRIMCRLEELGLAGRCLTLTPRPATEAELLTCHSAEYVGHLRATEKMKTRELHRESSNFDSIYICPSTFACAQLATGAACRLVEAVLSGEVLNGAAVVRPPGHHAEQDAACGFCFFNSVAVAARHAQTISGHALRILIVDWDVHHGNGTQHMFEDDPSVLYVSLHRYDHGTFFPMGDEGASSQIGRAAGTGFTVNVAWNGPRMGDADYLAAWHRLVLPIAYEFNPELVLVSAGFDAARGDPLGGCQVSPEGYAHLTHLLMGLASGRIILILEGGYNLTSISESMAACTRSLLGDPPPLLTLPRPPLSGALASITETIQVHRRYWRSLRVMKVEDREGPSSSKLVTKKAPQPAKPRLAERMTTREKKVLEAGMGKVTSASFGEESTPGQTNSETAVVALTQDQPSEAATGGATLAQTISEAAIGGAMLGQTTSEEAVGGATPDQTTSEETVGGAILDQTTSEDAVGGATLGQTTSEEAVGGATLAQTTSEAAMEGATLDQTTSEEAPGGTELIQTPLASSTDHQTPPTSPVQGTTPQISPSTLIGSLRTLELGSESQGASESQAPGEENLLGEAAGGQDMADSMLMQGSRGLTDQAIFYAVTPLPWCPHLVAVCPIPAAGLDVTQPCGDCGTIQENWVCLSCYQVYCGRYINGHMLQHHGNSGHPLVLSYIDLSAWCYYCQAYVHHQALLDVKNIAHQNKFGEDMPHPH
Method: as §1, §2

Compound | IC50 (human recombinant HDAC1) | HDAC6 selectivity (fold) (human recombinant HDAC6) | IC50 (human recombinant HDAC6)
CN1CCC(S(=O)(=O)N(Cc2cn3ccc(-c4nnc(C(F)F)o4)cc3n2)c2ccccc2)CC1 [Compound 3778, N-((7-(5-(difluoromethyl)-1,3,4-oxadiazol-2-yl)imidazo[1,2-a]pyridin-2-yl)methyl)-1-methyl-N-phenylpiperidine-4-sulfonamide] | > 50000 nM | 549 fold | 91 nM
O=S(=O)(C1CCN(C2COC2)CC1)N(Cc1cn2ccc(-c3nnc(C(F)F)o3)cc2n1)c1ccccc1 [Compound 3779, N-((7-(5-(difluoromethyl)-1,3,4-oxadiazol-2-yl)imidazo[1,2-a]pyridin-2-yl)methyl)-1-(oxetan-3-yl)-N-phenylpiperidine-4-sulfonamide] | > 50000 nM | 321 fold | 156 nM
CCN1CCC(S(=O)(=O)N(Cc2cn3ccc(-c4nnc(C(F)F)o4)cc3n2)c2ccccc2)CC1 [Compound 4214, N-((7-(5-(difluoromethyl)-1,3,4-oxadiazol-2-yl)imidazo[1,2-a]pyridin-2-yl)methyl)-1-ethyl-N-phenylpiperidine-4-sulfonamide] | > 50000 nM | 278 fold | 180 nM
CC(C)N1CCC(S(=O)(=O)N(Cc2cn3ccc(-c4nnc(C(F)F)o4)cc3n2)c2ccccc2)CC1 [Compound 4215, N-((7-(5-(difluoromethyl)-1,3,4-oxadiazol-2-yl)imidazo[1,2-a]pyridin-2-yl)methyl)-1-isopropyl-N-phenylpiperidine-4-sulfonamide] | > 50000 nM | 275 fold | 182 nM
CC(CO)N1CCC(S(=O)(=O)N(Cc2cn3ccc(-c4nnc(C(F)F)o4)cc3n2)c2ccccc2)CC1 (stereo not drawn) [Compound 4216, N-((7-(5-(difluoromethyl)-1,3,4-oxadiazol-2-yl)imidazo[1,2-a]pyridin-2-yl)methyl)-1-(1-hydroxypropan-2-yl)-N-phenylpiperidine-4-sulfonamide] | > 50000 nM | 420 fold | 119 nM
O=S(=O)(C1CCN(C2CCC2)CC1)N(Cc1cn2ccc(-c3nnc(C(F)F)o3)cc2n1)c1ccccc1 [Compound 4217, 1-cyclobutyl-N-((7-(5-(difluoromethyl)-1,3,4-oxadiazol-2-yl)imidazo[1,2-a]pyridin-2-yl)methyl)-N-phenylpiperidine-4-sulfonamide] | > 50000 nM | 410 fold | 122 nM
O=S(=O)(C1CCN(C2CCCCC2)CC1)N(Cc1cn2ccc(-c3nnc(C(F)F)o3)cc2n1)c1ccccc1 [Compound 4218, 1-cyclohexyl-N-((7-(5-(difluoromethyl)-1,3,4-oxadiazol-2-yl)imidazo[1,2-a]pyridin-2-yl)methyl)-N-phenylpiperidine-4-sulfonamide] | > 50000 nM | 433 fold | 116 nM
O=S(=O)(C1CCN(C2CCOCC2)CC1)N(Cc1cn2ccc(-c3nnc(C(F)F)o3)cc2n1)c1ccccc1 [Compound 4219, N-((7-(5-(difluoromethyl)-1,3,4-oxadiazol-2-yl)imidazo[1,2-a]pyridin-2-yl)methyl)-N-phenyl-1-(tetrahydro-2H-pyran-4-yl)piperidine-4-sulfonamide] | > 50000 nM | 482 fold | 104 nM
O=S(=O)(C1CCN(C2CCC(F)(F)CC2)CC1)N(Cc1cn2ccc(-c3nnc(C(F)F)o3)cc2n1)c1ccccc1 [Compound 4220, 1-(4,4-difluorocyclohexyl)-N-((7-(5-(difluoromethyl)-1,3,4-oxadiazol-2-yl)imidazo[1,2-a]pyridin-2-yl)methyl)-N-phenylpiperidine-4-sulfonamide] | > 50000 nM | 320 fold | 156 nM
CC(=O)N1CCC(S(=O)(=O)N(Cc2cn3ccc(-c4nnc(C(F)F)o4)cc3n2)c2ccccc2)CC1 [Compound 4221, 1-acetyl-N-((7-(5-(difluoromethyl)-1,3,4-oxadiazol-2-yl)imidazo[1,2-a]pyridin-2-yl)methyl)-N-phenylpiperidine-4-sulfonamide] | > 50000 nM | 364 fold | 137 nM
CCC(=O)N1CCC(S(=O)(=O)N(Cc2cn3ccc(-c4nnc(C(F)F)o4)cc3n2)c2ccccc2)CC1 [Compound 4222, N-((7-(5-(difluoromethyl)-1,3,4-oxadiazol-2-yl)imidazo[1,2-a]pyridin-2-yl)methyl)-N-phenyl-1-propionylpiperidine-4-sulfonamide] | > 50000 nM | 229 fold | 218 nM
O=C(C1CCC1)N1CCC(S(=O)(=O)N(Cc2cn3ccc(-c4nnc(C(F)F)o4)cc3n2)c2ccccc2)CC1 [Compound 4223, 1-(cyclobutanecarbonyl)-N-((7-(5-(difluoromethyl)-1,3,4-oxadiazol-2-yl)imidazo[1,2-a]pyridine-2-yl)methyl)-N-phenylpiperidine-4-sulfonamide] | > 50000 nM | 392 fold | 128 nM
O=C(N1CCC(S(=O)(=O)N(Cc2cn3ccc(-c4nnc(C(F)F)o4)cc3n2)c2ccccc2)CC1)C(F)(F)F [Compound 4224, N-((7-(5-(difluoromethyl)-1,3,4-oxadiazol-2-yl)imidazo[1,2-a]pyridin-2-yl)methyl)-N-phenyl-1-(2,2,2-trifluoroacetyl)piperidine-4-sulfonamide] | > 50000 nM | 354 fold | 141 nM
CS(=O)(=O)N1CCC(S(=O)(=O)N(Cc2cn3ccc(-c4nnc(C(F)F)o4)cc3n2)c2ccccc2)CC1 [Compound 4225, N-((7-(5-(difluoromethyl)-1,3,4-oxadiazol-2-yl)imidazo[1,2-a]pyridin-2-yl)methyl)-1-(methylsulfonyl)-N-phenylpiperidine-4-sulfonamide] | > 50000 nM | 530 fold | 94.4 nM
COC(=O)N1CCC(S(=O)(=O)N(Cc2cn3ccc(-c4nnc(C(F)F)o4)cc3n2)c2ccccc2)CC1 [Compound 4226, methyl 4-(N-((7-(5-(difluoromethyl)-1,3,4-oxadiazol-2-yl)imidazo[1,2-a]pyridin-2-yl)methyl)-N-phenylsulfamoyl)piperidine-1-carboxylate] | > 50000 nM | 432 fold | 116 nM
CN(C)C(=O)N1CCC(S(=O)(=O)N(Cc2cn3ccc(-c4nnc(C(F)F)o4)cc3n2)c2ccccc2)CC1 [Compound 4227, 4—(N-((7-(5-(difluoromethyl)-1,3,4-oxadiazol-2-yl)imidazo[1,2-a]pyridin-2-yl)methyl)-N-phenylsulfamoyl)-N, N-dimethylpiperidine-1-carboxamide] | > 50000 nM | 241 fold | 208 nM
O=S(=O)(C1CCN(c2ncccn2)CC1)N(Cc1cn2ccc(-c3nnc(C(F)F)o3)cc2n1)c1ccccc1 [Compound 4228, N-((7-(5-(difluoromethyl)-1,3,4-oxadiazol-2-yl)imidazo[1,2-a]pyridin-2-yl)methyl)-N-phenyl-1-(pyrimidin-2-yl)piperidine-4-sulfonamide] | > 50000 nM | 486 fold | 103 nM
